Patent publication US20230210834A1, “RNA METHYLTRANSFERASE INHIBITOR, SCREENING METHOD THEREFOR, ANTI-CANCER AGENT EFFICACY ASSESSMENT MARKER, AND KIT FOR EFFECTIVELY PREDICTING FTSJ1 INHIBITOR” (National University Corporation Okayama University, priority 2019, published 2023)

Assays:
[1] = test system: polyglutamine luciferase reporter; experiment: Screening: polyglutamine luciferase reporter assay in NUGC3 cells (luminescence % of DMSO); format: cell-based, human; settings: NUGC3 cells, luminescence relative to DMSO, concentration not given
Protocol: (§1) Human gastric cancer cell line NUGC3 was cultured in a DMEM medium (high glucose with L-glutamine and phenol red, produced by FUJIFILM Wako Pure Chemical Corporation) containing 10% fetal bovine serum (produced by Thermo Fisher Scientific Inc.) and penicillin-streptomycin (produced by FUJIFILM Wako Pure Chemical Corporation) (this medium is simply referred to below as “DMEM+10% FBS+1×P/S”). Then, the NUGC3 cells were seeded in a 60-mm culture dish (produced by BioLite) so that the cells were 80% confluent after 24 hours. Subsequently, 5 μg of a reporter plasmid and 15 μL of a lipofection reagent (transIT-LT1, produced by Mirus Bio LLC) were mixed in 500 μL of Opti-MEM medium (produced by Thermo Fisher Scientific, Inc.) to form a complex, which was added to the medium in which the NUGC3 cells were cultured in the 60-mm culture dish. For use as the reporter plasmid, 5 μg of a polyglutamine luciferase reporter was introduced (in the polyglutamine luciferase reporter, a Renilla luciferase expressed in the IRES was located as an internal standard downstream of the sequence of a firefly luciferase sequence to which polyglutamine was added). Alternatively, a YAP/TAZ activity reporter was used by simultaneously introducing 3 μg of 8×GTIIC plasmid and 2 μg of a Renilla luciferase reporter as an internal standard. After another 24 hours, the cells were exfoliated with a 0.05 w/v % trypsin-0.53 mmol/l EDTA-4Na solution (produced by FUJIFILM Wako Pure Chemical Corporation), and then seeded in a 96-well plate (produced by BioLite) so that the cells were 80% confluent after 24 hours. Twenty-four hours after seeding in the 96-well plate, the medium in each well was replaced with 100 μL of a medium (DMEM+10% FBS+an antibiotic) containing 10 μM or 5 μM of a compound for evaluation. After another 24 hours, the medium containing the compound was removed, and the 96-well plate was transferred on ice. Each well was washed with 100 μL of phosphate buffer (PBS, produced by FUJIFILM Wako Pure Chemical Corporation). Thereafter, 20 μL of Passive Lysis Buffer (1×) contained in a Dual-Luciferase Reporter Assay System (produced by Promega Corporation) was added. The plate was then gently shaken for 15 minutes at room temperature to lyse the cells. After confirming that the cells were lysed, 10 μL of the lysate was transferred from each well to each corresponding well of a white 96-well plate (produced by Greiner Bio-one). To each well of the white 96-well plate was added 100 μL of a mixture of a Luciferase Assay Buffer II and Luciferase Assay Substrate contained in the Dual-Luciferase Reporter Assay System (produced by Promega Corporation), whereby the luminescence of the firefly luciferase was induced, and the luminescence intensity was detected with a microluminometer (produced by Berthold Japan K.K.). Subsequently, 100 μL of a mixture of Stop & Glo Buffer and Stop & Glo Substrate contained in the Dual-Luciferase Reporter Assay System (produced by Promega Corporation) was added, whereby the luminescence of firefly luciferase was quenched while the luminescence of Renilla luciferase was induced, and the luminescence intensity was detected with a microluminometer (produced by Berthold Japan K.K.) in a manner similar to the above. The ratio of the luminescence intensity of the firefly luciferase and the luminescence intensity of the Renilla luciferase was calculated, and the luminescence intensity (%) of the wells containing each compound was calculated with the luminescence intensity of the well containing DMSO (dimethyl sulfoxide, used as a solvent for the compound liquids) taken as 100%. […] Unless otherwise specified, the measured values in the table represent the results obtained by evaluation with the addition of 10 μM of each compound for evaluation.

[2] = test system: YAP/TAZ; experiment: Screening: YAP/TAZ activity reporter (8xGTIIC plasmid) assay in NUGC3 cells (luminescence % of DMSO); format: cell-based, human; settings: NUGC3 cells, luminescence relative to DMSO, concentration not given
Protocol: as §1

[3] = polyglutamine luciferase reporter
[4] = YAP/TAZ activity reporter (8×GTIIC)

SMILES | Polyglutamine [1] [%] | 8×GTIIC [2] [%] | Polyglutamine [1, 3] [%] | 8×GTIIC [2, 4] [%]
CCc1cccc(C2CC(c3ccc(C)cc3)=NC2S(=O)(=O)c2ccc(C)cc2)c1CC (stereo not drawn) [PVZF0057] | 50.71 | 61.81 |  | 
CC(C)(C)c1cc(C(C)(C)C)cc(S(=O)(=O)CC2CCC(C3CC3)CC2)c1 (stereo not drawn) [SA066] |  |  | 66.16 | 64.4
Cc1ccc(C2=NC(S(=O)(=O)c3ccccc3)C(c3ccccc3C)C2)cc1 (stereo not drawn) [PVZF0074] | 79.16 | 96.63 |  | 
CC(=O)C1C=C(c2ccc(C)cc2)CC1c1ccc2ccccc2c1 (stereo not drawn) [PZ178] |  |  | 60.25 | 119.3
Cc1ccc(S(=O)(=O)CC2CCC(C3CC3)CC2)cc1C (stereo not drawn) [SA055] |  |  | 81.09 | 82.18
CS(=O)(=O)C1CCC(CS(=O)(=O)c2ccc3c(c2)CCCC3)CC1 (stereo not drawn) [SA065] |  |  | 47.58 | 39.43
CC(=O)c1cccc(C2CC(c3ccc(C)cc3)=NC2S(=O)(=O)c2ccc(C)cc2)c1 (stereo not drawn) [PVZF0095] | 47.01 | 66.76 |  | 
O=S(=O)(CC1CCC(C2CC2)CC1)c1ccc2c(c1)CCCC2 (stereo not drawn) [SA038] |  |  | 69.77 | 94.4
O=S(=O)(CCc1ccccc1)c1ccc(C2CCCCC2)cc1 [PVZF2068] |  |  | 53.21 | 74.24
CCc1cccc(C2CC(c3ccc(C)cc3)=NC2S(=O)(=O)c2ccccc2C)c1CC (stereo not drawn) [PVZF0059] | 43.94 | 38.46 |  | 
CC(C)c1cc(C(C)C)c(S(=O)(=O)NCC2CCCNC2)c(C(C)C)c1 (stereo not drawn) [PVZF2008] |  |  | 64.94 | 70.12
CC(C)c1cc(C(C)C)c(S(=O)(=O)CC2CCCC2)c(C(C)C)c1 [PVZF2002] |  |  | 36.92 | 38.2
CCc1cccc(C2CC(c3ccccc3)=NC2S(=O)(=O)c2ccccc2)c1CC (stereo not drawn) [PVZF0046] | 47.04 | 54.68 |  | 
CCc1cc(CC)cc(C2=NC(S(=O)(=O)c3ccc(C)cc3)C(c3cccc(CC)c3CC)C2)c1 (stereo not drawn) [PVZF0055] | 46.42 | 45.63 |  | 
Cc1ccc(S(=O)(=O)C2CCC(CS(=O)(=O)c3ccccc3)CC2)cc1 (stereo not drawn) [SA040] |  |  | 44.87 | 51.54
Cc1ccc(S(=O)(=O)CC2CCC(C3CC3)CC2)cc1 (stereo not drawn) [SA067] |  |  | 75.3 | 75.49
CCc1cccc(C2CC(c3cccc(C)c3)=NC2S(=O)(=O)c2ccccc2)c1CC (stereo not drawn) [PVZF0049] | 67.85 | 91.32 |  | 
CCc1ccc(C2CC(c3ccc(C)cc3)=NC2S(=O)(=O)c2ccc(C)cc2)cc1 (stereo not drawn) [PVZF0092] | 48.91 | 54.44 |  | 
CCc1cccc(C2CC(c3ccc(C)cc3)=NC2S(C)(=O)=O)c1CC (stereo not drawn) [PVZF0079] | 53.25 | 79.74 |  | 
CCc1cccc(C2CC(c3ccc(C)cc3)=NC2S(=O)(=O)c2ccccc2C)c1CC (stereo not drawn) [PVZF0051] | 40.74 | 36.59 |  | 
CC(C)c1cc(C(C)C)c(S(=O)(=O)CCc2ccccc2)c(C(C)C)c1 [PVZF2006] |  |  | 41.3 | 58.43
Cc1c(C)c(C)c(S(=O)(=O)CC2CCC(S(C)(=O)=O)CC2)c(C)c1C (stereo not drawn) [SA080] |  |  | 55.01 | 62.45
Cc1ccc(S(=O)(=O)CC2CCC(S(C)(=O)=O)CC2)cc1 (stereo not drawn) [SA062] |  |  | 93.21 | 100.9
CS(=O)(=O)C1CCC(CS(=O)(=O)c2ccc3c(c2)CCCC3)CC1 (stereo not drawn) [SA046] |  |  | 75.23 | 83.81
Cc1cc(C)c(S(=O)(=O)CC2CC(C)(C)CC(C)(C)C2)cc1C [SA008] |  |  | 51.03 | 57.06
CC(C)c1ccc(S(=O)(=O)CC2CCC(C3CC3)CC2)cc1 (stereo not drawn) [SA058] |  |  | 76.81 | 35.45
O=S(=O)(CCC1CCCCC1)c1ccc(-c2ccccc2)cc1 [PVZF2033] |  |  | 67.7 | 69.36
